Data from US8017558B2, “Carboxamides for controlling micro-organisms in plant and material protection” (priority 2005, dated 2011).
Each block holds one molecule with its values, some of them ahead of it.

Tests used:
[1] = logP determination by HPLC on reversed-phase column (C 18), EEC Directive 79/831 Annex V.A8; assay type: physicochemical; settings: for chromatographic logP: reversed-phase HPLC column (C 18)
Procedure: The logP values given in the Tables and Preparation Examples above are determined in accordance with EEC Directive 79/831 Annex V.A8 by HPLC (High Performance Liquid Chromatography) on a reversed-phase column (C 18). Temperature: 43° C. The determination is carried out in the acidic range at pH 2.3 using the mobile phases 0.1% aqueous phosphoric acid and acetonitrile; linear gradient from 10% acetonitrile to 90% acetonitrile. The determination is carried out in the neutral range at pH 7.5 using the mobile phases 0.01-molar aqueous phosphate buffer solution and acetonitrile; linear gradient from 10% acetonitrile to 90% acetonitrile. Calibration is carried out using unbranched alkan-2-ones (having 3 to 16 carbon atoms), with known logP values (determination of the logP values by the retention times using linear interpolation between two successive alkanones).

Pyrenophora teres = Pyrenophora teres Test (barley)/protective; assay type: in vivo; settings: protective spray, application rate 1000 ppm, evaluation 8 days after inoculation
Procedure: Pyrenophora teres Test (Barley)/Protective
(§1) To produce a suitable preparation of active compound, 1 part by weight of active compound is mixed with the stated amounts of solvent and emulsifier and the concentrate is diluted with water to the desired concentration. To test for protective activity, young plants are sprayed with the active compound preparation at the stated application rate. After the spray coating has dried on, the plants are sprayed with a conidia suspension of Pyrenophora teres. The plants remain in an incubation cabin at 20° C. and 100% relative atmospheric humidity for 48 hours. The plants are then placed in a greenhouse at a temperature of about 20° C. and a relative atmospheric humidity of about 80%. Evaluation is carried out 8 days after the inoculation. 0% means an efficacy which corresponds to that of the control, whereas an efficacy of 100% means that no infection is observed.

Uromyces appendiculatus = assay: Uromyces Test (bean)/protective; assay type: in vivo; settings: protective spray, application rate 100 ppm, evaluation 10 days after inoculation
Procedure: Uromyces Test (Bean)/Protective
(§2) To produce a suitable preparation of active compound, 1 part by weight of active compound is mixed with the stated amounts of solvents and emulsifier and the concentrate is diluted with water to the desired concentration. To test for protective activity, young plants are sprayed with the active compound preparation at the stated application rate. After the spray coating has dried on, the plants are inoculated with an aqueous spore suspension of the bean rust pathogen Uromyces appendiculatus and then remain in an incubation cabinet at about 20° C. and 100% relative atmospheric humidity for 1 day. The plants are then placed in a greenhouse at about 21° C. and a relative atmospheric humidity of about 90%. Evaluation is carried out 10 days after the inoculation. 0% means an efficacy which corresponds to that of the control, whereas an efficacy of 100% means that no infection is observed.

Sphaerotheca fuliginea = assay: Sphaerotheca Test (cucumber)/protective; assay type: in vivo; settings: protective spray, application rate 100 ppm, evaluation 7 days after inoculation
Procedure: Sphaerotheca Test (Cucumber)/Protective
To produce a suitable preparation of active compound, 1 part by weight of active compound is mixed with the stated amounts of solvents and emulsifier, and the concentrate is diluted with water to the desired concentration.
To test for protective activity, young plants are sprayed with the active compound preparation at the stated application rate. After the spray coating has dried on, the plants are inoculated with an aqueous spore suspension of Sphaerotheca fuliginea. The plants are then placed in a greenhouse at about 23° C. and a relative atmospheric humidity of about 70%.
Evaluation is carried out 7 days after the inoculation. 0% means an efficacy which corresponds to that of the control, whereas an efficacy of 100% means that no infection is observed.

Puccinia recondita = assay: Puccinia Test (wheat)/protective; assay type: in vivo; settings: protective spray, application rate 1000 ppm, evaluation 10 days after inoculation
Procedure: Puccinia Test (Wheat)/Protective
as §1, with “of Puccinia recondita.” for “of Pyrenophora teres.”, “about 80% to promote the development of rust pustules.” for “about 80%.”, “out 10” for “out 8”

Botrytis cinerea = assay: Botrytis Test (bean)/protective; assay type: in vivo; settings: protective spray, application rate 250 ppm, evaluation 2 days after inoculation
Procedure: Botrytis Test (Bean)/Protective
To produce a suitable preparation of active compound, 1 part by weight of active compound is mixed with the stated amounts of solvents and emulsifier and the concentrate is diluted with water to the desired concentration. To test for protective activity, young plants are sprayed with the active compound preparation at the stated application rate. After the spray coating has dried on, 2 small pieces of agar colonized by Botrytis cinerea are placed onto each leaf. The inoculated plants are placed in a dark chamber at about 20° C. and 100% relative atmospheric humidity. The size of the infected areas on the leaves is evaluated 2 days after the inoculation. 0% means an efficacy which corresponds to that of the control, whereas an efficacy of 100% means that no infection is observed.

Venturia inaequalis = assay: Venturia Test (apple)/protective; assay type: in vivo; settings: protective spray, application rate 100 ppm, evaluation 10 days after inoculation
Procedure: Venturia Test (Apple)/Protective
as §2, with “rates.” for “rate.”, “conidia” for “spore”, “apple scab” for “bean rust”, “Venturia inaequalis” for “Uromyces appendiculatus”, “cabin” for “cabinet”

Alternaria solani = assay: Alternaria Test (tomato)/protective; assay type: in vivo; settings: protective spray, application rate 500 ppm, evaluation 7 days after inoculation
Procedure: Alternaria Test (Tomato)/Protective
To produce a suitable preparation of active compound, 1 part by weight of active compound is mixed with the stated amounts of solvent and emulsifier and the concentrate is diluted with water to the desired concentration. To test for protective activity, young tomato plants are sprayed with the active compound preparation at the stated application rate. 1 day after the treatment, the plants are inoculated with a spore suspension of Alternaria solani and then remain at 100% relative atmospheric humidity and 20° C. for 24 h. The plants then remain at 96% relative atmospheric humidity and a temperature of 20° C. Evaluation is carried out 7 days after the inoculation. 0% means an efficacy which corresponds to that of the control, whereas an efficacy of 100% means that no infection is observed.

[2] = pH 2.3, 0.1% aqueous phosphoric acid/acetonitrile gradient, 43° C.

chromatographic logP [1, 2]: 3.66
Compound: Cn1cc(C(=NNc2ccccc2)Nc2ccccc2C2CC3CCC2C3)c(C(F)F)n1 (stereo not drawn) [II-8, N-(2-bicyclo[2.2.1]hept-2-ylphenyl)-3-(difluoromethyl)-1-methyl-N′-phenyl-1H-pyrazole-4-carbohydrazonamide]

logP (pH 2.3) [1, 2]: 2.88
Compound: Cn1cc(C(=NO)Nc2ccccc2C2CC3CCC2C3)c(C(F)F)n1 (stereo not drawn) [II-9]

logP (pH 2.3) [1, 2]: 4.95
Compound: Cn1cc(C(=Nc2ccccc2C2CC3CCC2C3)SCc2ccc(Cl)nc2)c(C(F)F)n1 (stereo not drawn) [Compound 12]

logP (pH 2.3) ([1]; pH 2.3): 4.66
Compound: CCOC(=O)CSC(=Nc1ccccc1C1CC2CCC1C2)c1cn(C)nc1C(F)F (stereo not drawn) [Compound 11]
Efficacy in % (Pyrenophora teres): 100%
Efficacy in % (Uromyces appendiculatus): 100%
Efficacy in % (Sphaerotheca fuliginea): 100%
Efficacy in % (Puccinia recondita): 100%
Efficacy in % (Botrytis cinerea): 100%
Efficacy in % (Venturia inaequalis): 100%
Efficacy in % (Alternaria solani): 95%

logP (pH 2.3) [1, 2]: 4.55
Compound: Cn1cc(C(=Nc2ccccc2C2CC3CCC2C3)SCSC#N)c(C(F)F)n1 (stereo not drawn) [Compound 7]

logP (pH 2.3) [1, 2]: 4.65
Compound: C#CCSC(=Nc1ccccc1C1CC2CCC1C2)c1cn(C)nc1C(F)F (stereo not drawn) [Compound 8]

logP (pH 2.3) [1, 2]: 4.15
Compound: Cn1cc(C(=Nc2ccccc2C2CC3CCC2C3)SCC#N)c(C(F)F)n1 (stereo not drawn) [Compound 6]

logP (pH 2.3) [1, 2]: 5.81
Compound: Cn1cc(C(=Nc2ccccc2C2CC3CCC2C3)SC(=O)C(C)(C)C)c(C(F)F)n1 (stereo not drawn) [Compound 18]

chromatographic logP [1, 2]: 4.75
Compound: CS/C(=N\c1ccccc1C1CC2CCC1C2)c1cn(C)nc1C(F)F (stereo not drawn) [Compound 9, methyl N-(2-bicyclo[2.2.1]hept-2-ylphenyl)-3-(difluoromethyl)-1-methyl-1H-pyrazole-4-carbimidothioate]

logP (at pH 7.5) ([1]; pH 7.5, 0.01-molar aqueous phosphate buffer/acetonitrile gradient, 43° C.): 3.70 (at pH 7.5)
Compound: Cc1nn(C)c(F)c1C(=S)Nc1ccccc1C(C)CC(C)(C)C (stereo not drawn) [II-1]

logP (pH 2.3) [1, 2]: 7.36
Compound: CCCCCCCCCCCCSC(=Nc1ccccc1C1CC2CCC1C2)c1cn(C)nc1C(F)F (stereo not drawn) [Compound 13]

logP (pH 2.3) ([1]; pH 2.3): 6.52
Compound: CCC1(C(=O)SC(=Nc2ccccc2C2CC3CCC2C3)c2cn(C)nc2C(F)F)C(C)C1(Cl)Cl (stereo not drawn) [Compound 19]
Efficacy in % (Pyrenophora teres): 92%
Efficacy in % (Uromyces appendiculatus): 96%
Efficacy in % (Puccinia recondita): 93%
Efficacy in % (Venturia inaequalis): 99%
Efficacy in % (Alternaria solani): 90%

logP (pH 2.3) [1, 2]: 4.62
Compound: COCCSC(=Nc1ccccc1C1CC2CCC1C2)c1cn(C)nc1C(F)F (stereo not drawn) [Compound 3]

chromatographic logP [1, 2]: 3.66
Compound: Cn1cc(C(=S)Nc2ccccc2C2CC3CCC2C3)c(C(F)F)n1 (stereo not drawn) [II-7, N-(2-bicyclo[2.2.1]hept-2-ylphenyl)-3-(difluoromethyl)-1-methyl-1H-pyrazole-4-thiocarboxamide]

logP (pH 2.3) ([1]; pH 2.3): 3.23
Compound: Cn1cc(C(=Nc2ccccc2C2CC3CCC2C3)SCCO)c(C(F)F)n1 (stereo not drawn) [Compound 10]
Efficacy in % (Uromyces appendiculatus): 100%
Efficacy in % (Sphaerotheca fuliginea): 100%
Efficacy in % (Botrytis cinerea): 100%
Efficacy in % (Venturia inaequalis): 100%
Efficacy in % (Alternaria solani): 100%

Compound: Cn1cc(C(=Nc2ccccc2C2CC3CCC2C3)SC(=O)C2(C)CCCCC2)c(C(F)F)n1 (stereo not drawn) [Compound 20]
Efficacy in % (Pyrenophora teres): 100%
Efficacy in % (Uromyces appendiculatus): 99%
Efficacy in % (Sphaerotheca fuliginea): 100%
Efficacy in % (Puccinia recondita): 100%
logP (pH 2.3) ([1]; pH 2.3): 6.66
Efficacy in % (Venturia inaequalis): 100%
Efficacy in % (Alternaria solani): 80%
